Reference: patent US20070166299A1, “TREATMENT FOR EMBOLIC STROKE” (priority 2005, published 2007)
Where two headings read alike, the source gives them in different places.

Experiments:
[1] = test system: small clot embolic strokes in rabbits; test: rabbit small clot embolic stroke model (RSCEM), quantal analysis of behavior; assay type: in vivo
Description: The invention used a rabbit small clot embolic stroke model (RSCEM) that reproduces many facets of human AIS including a well-defined clinical endpoint. The RSCEM utilizes administration of a suspension of small blood clots to induce strokes, and behavioral deficits that can be measured quantitatively. Moreover, the RSCEM is useful to conduct studies testing the effects of single drugs or drug combinations such as a neuroprotective agent (e.g., NXY-059) plus a thrombolytic (Tenecteplase, Alteplase, Desmoteplase and the like). Since it is likely that a drug combination will be used for patient management it is important to determine whether there are any interactions (positive or negative) between the compounds when administered following embolic strokes.
Methods: Male New Zealand white rabbits were anesthetized using halothane (5% induction, 2% maintenance by facemask), the bifurcation of the right carotid artery was exposed and the external carotid was ligated just distal to the bifurcation, where a catheter was inserted into the common carotid and secured with ligatures. The incision was closed around the catheter with the distal ends left accessible outside the neck; the catheter was filled with heparinized saline and plugged with an injection cap. Rabbits were allowed to recover from anesthesia for a minimum of 3 h until they awoke and behaved normally.
For the RSCEM, microclots were prepared from blood drawn from a donor rabbit and allowed to clot at 37° C. All rabbits in the study received injections of the same sized microclots. For embolization, clot particles were rapidly injected through the carotid catheter and both the syringe and catheter were flushed with 5 ml of normal saline.
Treatment Regimens: (A) Dose-Response Curve: NXY-059 was administered IV at a dose of 0.1-100 mg/kg infused over 30 min beginning 1 hour following embolization. (B) Therapeutic Window: NXY-059 (100 mg/kg) was given beginning 1, 3 or 6 hours following embolization. (C) Tenecteplase Dosing: Tenecteplase was administered IV at a dose of 0.9 mg/kg as a bolus injection given over one minute was administered 1 or 6 hours following embolization. (D) Combination studies: NXY-059 was administered IV at a dose of 100 mg/kg infused over 30 min and Tenecteplase was administered IV at a dose of 0.9 mg/kg beginning 1 or 6 hours following embolization.
Quantal Dose-Response Analysis: For the RSCEM, a quantal dose-response data analysis technique was used. A wide range of lesion volumes is induced to generate both normal and abnormal animals. Using 3 or more different doses of microclots generated each quantal analysis curve. […] Each animal is rated as either normal or abnormal (including dead animals), and inter-rater variability is very low (<5%). […] With this simple rating system, the composite result for a group of animals is quite reproducible. The P50 values are then calculated. These parameters are measures of the amount of microclots (in mg) that produce neurologic dysfunction in 50% of a group of animals. A separate curve is generated for each treatment condition that was tested. The data were analyzed using the t-test, which included the Bonferroni correction where appropriate.
Using the RSCEM model as described above male New Zealand white rabbits weighing 2.2-2.6 Kg were anesthetized and a catheter was inserted into the common carotid artery through which microclots were injected. Briefly, the bifurcation of one carotid artery was exposed and the external carotid was ligated just distal to the bifurcation. A catheter was inserted into the common carotid and secured with ligatures. The incision was closed around the catheter so that the distal end was accessible outside the animal's neck. The catheter was then filled with heparinized saline and plugged with an injection cap. Rabbits were allowed to recover from anesthesia until they were awake and behaving normally. […]

[2] = test system: spinal cord ischemia induced by temporary occlusion of the infrarenal aorta; test: rabbit reversible spinal cord ischemia model (RSCIM); assay type: in vivo
Method: In a rabbit reversible spinal cord ischemia model (RSCIM). ABHS was administered (25 mg/kg) intravenously (i.v.) 5 or 30 min following the start of occlusion to groups of rabbits exposed to ischemia induced by temporary occlusion of the infrarenal aorta. The group P50 represents the duration of ischemia (min) associated with a 50% probability of resultant permanent paraplegia.

[3] = cited from earlier work
[4] = ABHS 25 mg/kg, 60 min following embolization
[5] = ABHS 25 mg/kg, 180 min following embolization
[6] = ABHS 25 mg/kg i.v., 5 min post-occlusion

Compound: CC(=O)[C@H]1CC[C@H]2[C@@H]3CC[C@@H]4C[C@H](OC(=O)CCC(=O)O)CC[C@]4(C)[C@H]3CC[C@]12C [ABHS, 3-alpha-ol-5-beta-pregnan-20-one hemisuccinate]
- Observation ([1]; ABHS 25 mg/kg, 5 min following embolization): Sedation
- Observation [1, 4]: Sedation
- P50 [1, 4]: 1.05 ± 0.24 mg
- Observation [1, 5]: Sedation
- P50 [1, 5]: 1.42 ± 0.35 mg
- effect on therapeutic window for tPA ([1]; ABHS with tPA (FIG. 7)): increases the therapeutic window for tPA
- duration of sedation (loss of righting reflex) after drug injection ([1]; IV ABHS administration to rabbits): 2 to 3 h
- P50 (duration of ischemia associated with 50% probability of permanent paraplegia) [2, 6]: 49.18 ± 10.44 min
- increase of P50 over control [2, 6]: 110%
- tolerance to ischemia ([2]; ABHS administered 30 min following the start of occlusion): increased the tolerance to ischemia
- persistence of effect ([2]; ABHS injected 5 min following the start of ischemia and again 24 h after ischemia): persistent effect of the drug at 48 h

Compound: O=c1cc(-c2ccccc2)oc2cc(O)c(O)c(O)c12 [Baicalein, 5,6,7 trihydroxyflavone]
- P50 ([1]; Baicalein 100 mg/kg SC, 5 minutes following embolization): 2.85 ± 0.64 mg

Compound: O=C(C=Cc1ccc(O)c(O)c1)OC1CC(O)(C(=O)O)CC(O)C1O (stereo not drawn) [CGA, 3-[[3-(3,4-Dihydroxyphenyl)-1-oxo-2-propenyl]oxy] 1,4,5-trihydroxycyclohexanecarboxylic acid]
- P50 ([1]; CGA 50 mg/kg IV, 5 minutes following embolization, behavior 24 hours): 3.61 ± 0.52 mg
- P50 ([1]; CGA 50 mg/kg single bolus, 1 hour post-embolization): 2.57 ± 0.28 mg
- P50 ([1]; CGA 50 mg/kg, 3 hours following embolization): 1.22 ± 0.24 mg

Compound: O=c1c(O)c(-c2ccc(O)c(O)c2)oc2cc(O)ccc12 [Fisetin, fisetin]
- P50 ([1]; Fisetin 50 mg/kg IV, 5 minutes following embolization): 2.18 ± 0.42 mg

Compound: CC(C)(C)[N+]([O-])=Cc1ccc(S(=O)(=O)O)cc1S(=O)(=O)O.[Na].[Na] [NXY-059, disodium 2,4-disulfophenyl-N-tert-butylnitrone]
- P50 ([1]; NXY-059 100 mg/kg IV, 1 hour following embolization, measured 24 hours after embolization): 2.81 ± 0.46 mg
- P50 ([1]; NXY-059 100 mg/kg, 3 hours following embolization): 1.78 ± 0.42 mg
- increase of P50 over vehicle control ([1]; NXY-059 1-100 mg/kg administered following embolization): 100-134%
- effect on P50 (dose-response) ([1]; NXY-059 doses from 1-100 mg/kg, 1 hour following embolization): significantly increased the P50

Compound: CC12CC3CC(C)(C1)CC(N)(C3)C2 [memantine]
- effect on efficacy of low-dose tPA ([1]; memantine with low-dose tPA (FIG. 8)): increases the efficacy of low-dose tPA: synergy

Compound: tPA: thrombolytic, tissue plasminogen activator; FDA-approved treatment for acute ischemic stroke
- increase of hemorrhage rate ([3]; high dose of tPA 3.3 mg/kg): 52%
- increase of hemorrhage rate ([3]; low dose of tPA 0.9 mg/kg): 28%
- P50 ([1]; low-dose tPA 0.9 mg/kg alone, 60 min following embolization): 1.25 ± 0.25 mg
- P50 ([1]; tPA 3.3 mg/kg alone, 60 min after embolization (ABHS study)): 2.69 ± 0.19 mg
- P50 ([1]; tPA 3.3 mg/kg, 1 hour after embolization (CGA study)): 2.89 ± 0.29 mg
- P50 ([1]; tPA 3.3 mg/kg, 3 hours after embolization (CGA study)): 1.54 ± 0.27 mg
